{"source": "patent US20130012473A1", "about": "“COMBINED USE OF PHOSPHOLIPID AND SULFATE GROUPS-CARRYING POLYSACCHARIDES FOR INHIBITING METASTATIC SPREAD” (KTB TUMORFORSCHUNGSGESELLSCHAFT MBH, priority 2010, published 2013)", "key": {"[1]": {"tested_on": "B16.F10 ELN melanoma cells", "test": "Experimental lung metastasis model, luciferase assay of lung homogenates", "type": "in vivo, mouse", "experimental": "Generation of luciferase expressing B16.F10 melanoma cells: For sensitive detection of metastases in vivo in lung and other murine tissues, stably luciferase-transduced B16.F10 ELN melanoma cells were established as recently described (Bornmann, C. et al., Cancer Chemother. Pharmacol. 61:395-405 (2008)).\nAnimal experiments: Lung metastases were induced by injecting 3×10^5 cells in 100 μl PBS into the tail vein of male C57BI/6N mice (Charles River Laboratories, Sulzfeld, Germany) (Ludwig, R. J. et al., Cancer Res. 64:2743-2750 (2004)). […] In a further experiment, animals were pre-treated 30 min before cell injection with 50 IU (Ludwig, R. J. et al., Cancer Res. 64:2743-2750 (2004)) unfractionated heparin (Ratiopharm GmbH, Ulm, Germany), followed by injection of either long-term 450 μM LysoPC treated or DMEM control medium cultured B16.F10 ELN cells. Experiments were terminated on day 14 (see establishment of the model—FIG. 9). Tissues were removed and stored as snap frozen samples. Metastatic lesions were quantified by homogenizing the tissues in luciferase lysis buffer and measuring in a luciferase assay (Promega E1501) as described (Jantscheff, P. et al., Establishment of human orthotopic LNCaP prostate cancer xenograft metastases model: Effect of Gemcitabine and GemLip. Clin. Exp. Metastasis: in press (2009); Jantscheff, P. et al., Prostate 69:1151-1163 (2009)).\nExample 4: Inhibition of in vivo metastasis of B16.F10 ELN cells pretreated with LysoPC. […] For a sensitive quantitative analysis of metastatic spread in the lung, luciferase-transduced B16.F10 ELN cells were used. […]\nTo establish the mice metastasis model with luciferase-transduced B16.F10 melanoma cells, metastatic lesions in the lung and other tissues (those strongly supplied with blood, spleen, liver, kidney) were investigated at different time points (6 h, 24 h, 7 d, 14 d, and 19 d). Sensitivity of in vitro detection of metastatic lesions was determined as recently described (Jantscheff, P. et al., Prostate 69:1151-1163 (2009)) and limited corresponding to the detection of about 1000 cells in 1 ml tissue lysate (data not shown). Three to four animals were analyzed at each time point and metastatic lesions in lung and other tissues were determined by in vitro luciferase assay in tissue homogenates (see Material and Methods). As shown in A) significant metastasis could be detected first at day 7 and reached a plateau at day 14 in the lung. […] Therefore, in future experiments the animals were analyzed at day 14 and the experiments were limited to this time frame. Using the same scale, no metastatic lesions were detected in the other organs. […]"}, "[2]": {"tested_on": "VLA-4 adhesion of B16.F10 cells to VCAM-1", "test": "Parallel plate flow chamber assay, cell adhesion to immobilized VCAM-1", "type": "cell-based, mouse", "experimental": "Flow chamber assay: The interaction of B16.F10 cells with VCAM-1 Fc chimera under physiological flow conditions was analyzed on glass slides coated with VCAM-1 Fc chimera in a parallel plate flow chamber, as described in detail in our previous investigations (Fritzsche, J. et al., Thromb. Haemost. 100:1166-1175 (2008)).\nExample 2: Impact of LysoPC treatment of B16.F10 cells on adhesion receptor activity in vitro. In order to investigate the concentration and time dependent effects of LysoPC on the receptor mediated cell binding ability, VLA-4 adhesion of B16.F10 cells to a support-fixed VCAM-1 layer was investigated (FIG. 2A). […] The LysoPC effects on adhesion became amplified by repeated LysoPC feeding."}, "B16.F10 cells": {"tested_on": "B16.F10 cells", "test": "SACED cell migration assay on fibronectin", "type": "cell-based, mouse", "conditions": "450 μM LysoPC, fibronectin layers", "experimental": "Quantification of cell motility: Cell migration of B16.F10 cells cultivated on fibronectin (Sigma-Aldrich Chemie) covered dishes was determined with or without LysoPC. […] (Nikon, Dusseldorf, Germany) and an incubation chamber for constant temperature, applying NIS Elements AR 2.30 software and a camera (COOL-1300I; Vosskuhler GmbH, Germany)\nLamella dynamics and cell migration velocity were analyzed by the computer-assisted stroboscopic analysis of cell dynamics (SACED). At least 15 individual cells, incubated with or without LysoPC, were monitored over a period of 10 min by capturing digital images every 2 s. Subsequently, eight areas of interest were marked on each image by lines that crossed the cell lamella. The resulting 1 pixel wide areas were cut and lined up in time space plots that allowed the quantification of relevant motility data (Hinz, B. et al., Exp. Cell. Res. 251:234-243 (1999))."}, "P-selectin ligands": {"tested_on": "P-selectin ligands", "test": "Flow cytometry, binding of soluble P-selectin Fc chimera", "type": "cell-based, mouse", "conditions": "450 μM LysoPC treated cells vs control cells", "experimental": "FIG. 3: Impact of exogenous LysoPC on the surface expression of VLA-4 or VCAM-1- and P-selectin-ligands. (A) Surface expression of VLA-4 on B16.F10 cells treated with 450 μM LysoPC for 13 days was controlled by flow cytometric analysis. […] FACS histograms (A-C) show one representative of three independent experiments. In all experiments cells only incubated with the respective FITC-conjugated detection antibody served as control."}}}
{"smiles": "CCCCCCCCCCCCCCCCC(=O)OC[C@@H](O)COP(=O)([O-])OCC[N+](C)(C)C", "note": "[LysoPC]", "values": [{"measurement": "metastatic lesions in the lung, mean percentage relative to untreated controls (100%)", "setting": "[1]; B16.F10 ELN cells treated ex vivo six times with 450 μM LysoPC (long-term), injected i.v., lung luciferase assay day 14", "value": 51.7, "unit": "%"}, {"measurement": "lung luciferase activity compared to control", "setting": "[1]; cells treated twice with 300 μM LysoPC (short-term), day 14", "value": "slightly but insignificantly enhanced luciferase activity"}, {"measurement": "macroscopically visible metastatic foci on lung surface", "setting": "[1]; long-term 450 μM LysoPC group, day 14", "value": "clearly smaller numbers of metastatic foci"}, {"measurement": "macroscopically visible metastatic foci on lung surface", "setting": "[1]; short-term 300 μM LysoPC group vs control, day 14", "value": "no differences were seen between the control and the short-term group"}, {"measurement": "cell binding to support-fixed VCAM-1", "setting": "[2]; repeated addition of 300 μM LysoPC (13 days)", "value": "no effect in reducing the VLA-4 binding"}, {"measurement": "cell binding to support-fixed VCAM-1", "setting": "[2]; single incubation with 300 μM LysoPC for 72 h", "value": "did not mediate significant binding decrease"}, {"measurement": "cell binding to support-fixed VCAM-1", "setting": "[2]; single incubation with 450 μM LysoPC for 72 h before VLA-4 activation", "value": "significantly impaired the cell binding"}, {"measurement": "cell binding to support-fixed VCAM-1", "setting": "[2]; treated six times with 450 μM LysoPC (13 days)", "value": "complete binding inhibition"}, {"measurement": "lamellipodia dynamics (frequencies of protrusion and retraction)", "setting": "B16.F10 cells", "value": "attenuated dynamics (p<0.05) of lamellipodia protrusion and retraction"}, {"measurement": "lamellipodia retraction velocity", "setting": "B16.F10 cells; p<0.05", "value": "slower lamellipodia retraction velocity"}, {"measurement": "expression of P-selectin ligands (P-selectin-Fc chimera binding)", "setting": "P-selectin ligands", "value": "remained unchanged"}]}
